The supplement of paper PMC3493320

System: NCI-H295R
Assay: IC50 (antiproliferative, ATP content)
Conditions: 48 h
Outline: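 Adrenocortical carcinoma cells were plated at 1500 per well in 1536-well plates in serum-free DMEM with ITS supplement, left overnight, then given library compounds by pin transfer at 8 final concentrations spanning 0.6 nM to 46 µM and held 48 h at 37 °C, 5% CO2. ATP was measured as CellTiter-Glo luminescence after 20 min at room temperature and scaled between vehicle and positive-control wells. A four-parameter logistic model was fitted to each series. The IC50 was taken from these fits, and compounds without a concentration response were recorded as above the top dose.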

| Structure (SMILES) | IC50 [µM] |
| --- | --- |
| C[C@]12C[C@H]3S[C@H]3C[C@@H]1CC[C@@H]1[C@@H]2CC[C@]2(C)[C@@H](O)CC[C@@H]12 | > 46 |
| O=C1N([C@@H](CC8=CC=CC=C8)C(N3CCC[C@@]23[H])=O)[C@@]2(O)O[C@]([C@H](C)C)1N[C@]([C@@H]6C[C@]([C@]7([H])N(C)C6)([H])C5=C4C(C7)=CNC4=CC=C5)=O | > 46 |
| CO[C@]12C[C@@H](COC(=O)c3cncc(Br)c3)CN(C)[C@@H]1Cc1cn(C)c3cccc2c13 | > 46 |
| CN1Cc2c(N)cccc2C(c2ccccc2)C1.O=C(O)/C=C\C(=O)O (configuration not stated) | > 46 |
| CC[NH+](CC)CCc1nc(-c2ccccc2)no1.O=C([O-])CC(O)(CC(=O)O)C(=O)O | > 46 |
| COc1ccc(Cc2nccc3cc(OC)c(OC)cc23)cc1OC.Cl | > 46 |
| O=Cc1ccco1 | > 46 |
| COc1cc2c(cc1OC)[C@@H](c1ccccc1)CN(C)CC2.O=C(O)/C=C\C(=O)O | > 46 |
| O=C1OC2(c3cc(Br)c([O-])cc3Oc3c2cc(Br)c([O-])[c]3[Hg][OH])c2ccccc21.[Na+].[Na+] (configuration not stated) | > 46 |
| CCCCCCCCC(=O)NCc1ccc(O)c(OC)c1 | > 46 |
| NC(=O)NO | > 46 |
| CS(=O)(=O)c1ccc(C2=C(c3ccccc3)C(=O)OC2)cc1 | > 46 |
| CCn1cc(C(=O)O)c(=O)c2cc(F)c(N3CCNCC3)cc21 | > 46 |
| Nc1c2c(nc3ccccc13)CCCC2 | > 46 |
| CCN(CC)CCSC(=O)C(c1ccccc1)c1ccccc1 | > 46 |
| O=C1c2ccccc2C(=O)c2c1ccc(O)c2O | > 46 |
| CN1C(=O)CCS(=O)(=O)C1c1ccc(Cl)cc1 (configuration not stated) | > 46 |
| CCCCCCCC(=O)OCC(COC(=O)CCCCCCC)OC(=O)CCCCCCC | > 46 |
| NCCNCCNCCNCCN | > 46 |

Further lines, results first:

| IC50 [µM] | Structure (SMILES) |
| --- | --- |
| > 46 | O=[C@](C)[C@@H]3[C@](CC2)(C)[C@](CC3)([H])[C@@]1([H])[C@@]2([H])[C@](CC[C@H](O)C4)(C)C4=CC1 |
| > 46 | N#Cc1ccc2c(c1)N(CCCN1CCC(O)CC1)c1ccccc1S2 |
| > 46 | NC(=O)N1c2ccccc2CC(=O)c2ccccc21 |
| > 46 | [NH2][Pt]([NH2])([Cl])[Cl] |
| > 46 | Cl.NCCNC(=O)c1ccc(Cl)cn1 |
| > 46 | O=C1NCCN1c1ncc([N+](=O)[O-])s1 |
| > 46 | C=CCCCCCCCCC(=O)OC |
| > 46 | O=C1[C@H]([C@H](C)C)CC[C@@H](C)C1 |
| > 46 | O=C(O)c1ccccc1Nc1cccc(C(F)(F)F)c1 |
| > 46 | O=c1[nH]c(=O)n([C@H]2C[C@H](O)[C@@H](CO)O2)cc1C(F)(F)F |
| > 46 | COc1ccc2cc([C@H](C)C(=O)[O-])ccc2c1.[Na+] |
| > 46 | CCc1cn([C@H]2C[C@H](O)[C@@H](CO)O2)c(=O)[nH]c1=O |
| > 46 | OC[C@H]1O[C@@H]2O[C@H]3[C@H](O)[C@@H](O)[C@@H](O[C@H]4[C@H](O)[C@@H](O)[C@@H](O[C@H]5[C@H](O)[C@@H](O)[C@@H](O[C@H]6[C@H](O)[C@@H](O)[C@@H](O[C@H]7[C@H](O)[C@@H](O)[C@@H](O[C@H]1[C@H](O)[C@H]2O)O[C@@H]7CO)O[C@@H]6CO)O[C@@H]5CO)O[C@@H]4CO)O[C@@H]3CO |
| > 46 | CCCCN1C[C@H](O)[C@@H](O)[C@H](O)[C@H]1CO |
| > 46 | O=C(NNCS(=O)(=O)[O-])c1ccncc1.[Na+] |
| > 46 | O=C(OCCOCCO)c1ccccc1Nc1cccc(C(F)(F)F)c1 |
| > 46 | NC(=O)c1cc[n+](CC2=C(C(=O)[O-])N3C(=O)[C@@H](NC(=O)[C@H](c4ccccc4)S(=O)(=O)[O-])[C@@H]3SC2)cc1.[Na+] |
| > 46 | CC(C)NCC(O)c1ccc(O)c(O)c1 (configuration not stated) |
| > 46 | CCC1(C)CC(=O)NC1=O (configuration not stated) |
| > 46 | CCOc1ccc(/N=C(\C)Nc2ccc(OCC)cc2)cc1 |
| > 46 | [Br-].O.C[N+]2(C1C[C@H](CC2CC1)OC(=O)C(CO)c3ccccc3)C(C)C (configuration not stated) |
| > 46 | CCCC(=O)Nc1ncnc2c1ncn2[C@@H]1O[C@@H]2COP(=O)(O)O[C@H]2[C@H]1OC(=O)CCC |
| > 46 | NCCCCCC(=O)O |
| > 46 | CCCC(CCC)C(=O)O |
| > 46 | CCOC(=O)C(C)(C)Oc1ccc(Cl)cc1 |
| > 46 | CCOc1ccc(NC(=S)Nc2ccc(OCC)cc2)cc1 |
| > 46 | Nc1nc(Cl)nc2c1ncn2[C@H]1C[C@H](O)[C@@H](CO)O1 |
| > 46 | NC(=O)c1ncn([C@@H]2O[C@H](CO)[C@@H](O)[C@H]2O)c1N |
